In patent publication US20090208934A1, “PECAM-1 GENOTYPE” (The Johns Hopkins University, priority 2005, published 2009):

Legend:
Ren (+/WT) cells = assay: Ren cell aggregation assay; assay type: cell-based; details: wild type PECAM-1 transfected, agent added to cell suspension at two concentrations, 90 rpm, 37° C., 20 minutes, FIG. 4
Procedure: (§1) FIG. 4 depicts the results of a Ren cell aggregation assay. About 2×10^6 of Ren cells, Ren (−), Ren (+/WT) and Ren (+/PM), were seeded in a T75 flask and cultured for 48 hours for aggregation assays. The monodispersed Ren cells suspension (10^6 cells/ml in HBSS with 1 mM CaCl2) were prepared. Next, two concentrations of anti-PECAM-1 antibody (JHS-7) (A), and human rcPECAM-1 (B) were added in. Then, cells were transfected to wells in a 24-well tissue culture tray (1 mL per well) and rotated on a gyratory shaker (at 90 rpm) at 37° C. for 20 minutes. Data are expressed as the percent of total cells present in aggregates. *P<0.05, **P<0.01.
(§2) A variation of aggregation assay of Takeichi (59) was adopted. Briefly, confluent culture of Ren cells were detached and dispersed and resuspended to about 10^6 cells/ml in HBSS (37° C.) with 1 mM CaCl2. One ml cell aliquots were transfected to wells in a 24-well plate and rotated on a gyratory shaker (At 90 rpm) at 37° C. for 20 minutes, then stopped by addition of glutaraldehyde to a final concentration of 2%. Aggregation was quantified by examining representative aliquot of equal volumes from each sample on a hemacytometer grid under phase contrast optics. Cells remaining as single cells or present in aggregates (≧3 cells clots) were counted in nine squares. Data are expressed as the percent of total cells present in aggregates.

Ren (+/PM) cells = assay: Ren cell aggregation assay; assay type: cell-based; details: 125Val plus 563Asn PECAM-1 transfected, agent added to cell suspension at two concentrations, 90 rpm, 37° C., 20 minutes, FIG. 4
Procedure: as §1, §2

Substance: recombinant human PECAM-1 protein: Soluble recombinant PECAM-1 (95˜98 KDa, containing only the extracellular domains), purchased from R&D Systems (Cat# ADP6C)
- effect on Ren cell aggregation (percent of total cells present in aggregates) (Ren (+/WT) cells): attenuated the aggregation
- effect on Ren cell aggregation (percent of total cells present in aggregates) (Ren (+/PM) cells): attenuated the aggregation
